{"source": "patent US10633376B2", "about": "“Crystalline forms of JAK1-selective inhibitor, processes for preparation and use thereof” (Crystal Pharmaceutical (Suzhou) Co., Ltd., priority 2016, dated 2020)", "key": {"[1]": {"details": "clinical trials by Gilead; cited from earlier work"}, "[2]": {"details": "prior art patents; cited from earlier work"}, "[3]": {"details": "92.5% humidity for 5 days and 10 days, XRPD; cited from earlier work"}, "[4]": {"assay": "Stability study of crystalline form on storage, XRPD", "type": "physicochemical", "details": "3 weeks", "protocol": "Form CS1 of the present disclosure was stored under 25° C./60% RH and 40° C./75% RH for 3 weeks. Form CS2 of the present disclosure was stored under 25° C./60% RH, 40° C./75% RH and 60° C./75% RH for 3 weeks."}, "[5]": {"assay": "Solubility comparison study, saturated solutions measured by HPLC", "type": "physicochemical", "details": "for Solubility in FaSSIF 1 h: FaSSIF pH=6.5, 1 h; for Solubility in FaSSIF 4 h: FaSSIF pH=6.5, 4 h; for Solubility in FaSSIF 24 h: FaSSIF pH=6.5, 24 h", "protocol": "Saturated solutions of Form CS1, Form CS2 of the present disclosure and Pattern 4 in patent CN105960407A (hereinafter referred to as patent Pattern 4) were prepared in SGF (simulated gastric fluids), FeSSIF (fed state simulated intestinal fluids, pH=5.0), FaSSIF (fasted state simulated intestinal fluids, pH=6.5) and pure water. After equilibrated for 1 h, 4 h and 24 h, concentrations of the saturated solutions were measured by HPLC."}, "[6]": {"assay": "Mechanical stability study, XRPD before and after grinding", "type": "physicochemical", "text": "XRPD was applied to test the crystalline forms of Form CS2, Form CS3 and Pattern 4 in patent CN105960407A before and after grinding. The test results were shown in FIG. 20, FIG. 21 and FIG. 22."}, "[7]": {"assay": "Hygroscopicity by dynamic vapor sorption (DVS)", "type": "physicochemical", "protocol": "Dynamic Vapor Sorption (DVS) is measured via a SMS (Surface Measurement Systems Ltd.) intrinsic DVS instrument. Its control software is DVS-Intrinsic control software, and its analysis software is DVS-Intrinsic Analsis software. Typical Parameters for DVS test are as follows:\nGas and flow rate: N2, 200 mL/min\nRH range: 0% RH to 95% RH\nDynamic vapor sorption (DVS) was applied to test hygroscopicity of Form CS2 and Pattern 4 in patent CN105960407A (hereinafter referred to as patent Pattern 4) on about 10 mg of samples. The weight gains at each relative humidity were recorded in a cycle of 0-95%-0 RH."}}, "note": "“Also recorded” adds a separate entry of the source. Where two headings read alike, the source gives them in different places.", "data": [{"smiles": "O=C(Nc1nc2cccc(-c3ccc(CN4CCS(=O)(=O)CC4)cc3)n2n1)C1CC1", "note": "[Filgotinib, N-[5-[4-[(1,1-dioxo-1-thiomorpholin-4-yl)methyl]phenyl][1,2,4]triazolo [1,5-a]pyridin-2-yl]cyclopropanecarboxamide]", "values": [{"measurement": "Anemia and abnormal increase in low density lipoprotein (LDL)", "setting": "[1]", "value": "does not cause an anemia and abnormal increase in low density lipoprotein (LDL)"}]}, {"smiles": "O=C(Nc1nc2cccc(-c3ccc(CN4CCS(=O)(=O)CC4)cc3)n2n1)C1CC1", "note": "[Form B of free form]", "values": [{"measurement": "Solubility in water", "setting": "[2]", "value": "The solubility in water is 41.28 μg/mL. The yield is low,"}, {"measurement": "Stability", "setting": "[3]", "value": "Stability is poor. Sample was tested by XRPD after being"}]}, {"smiles": "O=C(Nc1nc2cccc(-c3ccc(CN4CCS(=O)(=O)CC4)cc3)n2n1)C1CC1", "note": "[Form C of free form]", "values": [{"measurement": "Solubility in water", "setting": "[2]", "value": "The solubility in water is 42.22 μg/mL. The yield is low"}, {"measurement": "Stability", "setting": "[3]", "value": "Stability is poor. Sample was tested by XRPD after being"}]}, {"smiles": "O=C(Nc1nc2cccc(-c3ccc(CN4CCS(=O)(=O)CC4)cc3)n2n1)C1CC1", "note": "[Form CS1]", "values": [{"measurement": "Solid form change", "setting": "[4]; 25° C./60% RH", "value": "doesn't change; also recorded: No form change of Form CS1"}, {"measurement": "Solid form change", "setting": "[4]; 40° C./75% RH", "value": "doesn't change; also recorded: No form change of Form CS1"}, {"measurement": "Solubility in FaSSIF 1 h", "setting": "[5]", "value": 120, "unit": "µg/mL"}, {"measurement": "Solubility in FaSSIF 4 h", "setting": "[5]", "value": 110, "unit": "µg/mL"}, {"measurement": "Solubility in FaSSIF 24 h", "setting": "[5]", "value": 120, "unit": "µg/mL"}, {"measurement": "Solubility in SGF 1 h", "setting": "[5]; SGF (pH=1.8)", "value": 3230, "unit": "µg/mL"}, {"measurement": "Solubility in SGF 4 h", "setting": "[5]; SGF (pH=1.8), 4 h", "value": 3300, "unit": "µg/mL"}, {"measurement": "Solubility in SGF 24 h", "setting": "[5]; SGF (pH=1.8), 24 h", "value": 820, "unit": "µg/mL"}, {"measurement": "solubility at 1 h", "setting": "[5]; fed state simulated intestinal fluid (FeSSIF), pH 5, fessif, thermodynamic from solid, FeSSIF pH=5.0, 1 h", "value": 200, "unit": "µg/mL"}, {"measurement": "solubility at 4 h", "setting": "[5]; fed state simulated intestinal fluid (FeSSIF), pH 5, fessif, thermodynamic from solid, FeSSIF pH=5.0, 4 h, read-out: Solubility in FeSSIF 4 h", "value": 200, "unit": "µg/mL"}, {"measurement": "solubility at 24 h", "setting": "[5]; fed state simulated intestinal fluid (FeSSIF), pH 5, fessif, thermodynamic from solid, FeSSIF pH=5.0, 24 h, read-out: Solubility in FeSSIF 24 h", "value": 250, "unit": "µg/mL"}, {"measurement": "Solubility in water 1 h", "setting": "[5]; pure water", "value": 120, "unit": "µg/mL"}, {"measurement": "Solubility in water 4 h", "setting": "[5]; pure water, 4 h", "value": 90, "unit": "µg/mL"}, {"measurement": "Solubility in water 24 h", "setting": "[5]; pure water, 24 h", "value": 210, "unit": "µg/mL"}]}, {"smiles": "O=C(Nc1nc2cccc(-c3ccc(CN4CCS(=O)(=O)CC4)cc3)n2n1)C1CC1", "note": "[Form CS2]", "values": [{"measurement": "Solid form change", "setting": "[4]; 25° C./60% RH", "value": "doesn't change; also recorded: No form change of Form CS2"}, {"measurement": "Solid form change", "setting": "[4]; 40° C./75% RH", "value": "doesn't change; also recorded: No form change of Form CS2"}, {"measurement": "Solid form change", "setting": "[4]; 60° C./75% RH", "value": "doesn't change; also recorded: No form change of Form CS2"}, {"measurement": "Solubility in FaSSIF 1 h", "setting": "[5]", "value": 50, "unit": "µg/mL"}, {"measurement": "Solubility in FaSSIF 4 h", "setting": "[5]", "value": 50, "unit": "µg/mL"}, {"measurement": "Solubility in FaSSIF 24 h", "setting": "[5]", "value": 40, "unit": "µg/mL"}, {"measurement": "Solubility in FeSSIF 1 h", "setting": "[5]; FeSSIF pH=5.0, 1 h", "value": 90, "unit": "µg/mL"}, {"measurement": "Solubility in FeSSIF 4 h", "setting": "[5]; FeSSIF pH=5.0, 4 h", "value": 100, "unit": "µg/mL"}, {"measurement": "Solubility in FeSSIF 24 h", "setting": "[5]; FeSSIF pH=5.0, 24 h", "value": 80, "unit": "µg/mL"}, {"measurement": "Solubility in SGF 1 h", "setting": "[5]; SGF (pH=1.8)", "value": 1310, "unit": "µg/mL"}, {"measurement": "Solubility in SGF 4 h", "setting": "[5]; SGF (pH=1.8), 4 h", "value": 1320, "unit": "µg/mL"}, {"measurement": "Solubility in water 1 h", "setting": "[5]; pure water", "value": 40, "unit": "µg/mL"}, {"measurement": "Solubility in water 24 h", "setting": "[5]; pure water, 24 h", "value": 40, "unit": "µg/mL"}, {"measurement": "solubility at 4 h", "setting": "[5]; pure water, water, thermodynamic from solid, pure water, 4 h, read-out: Solubility in water 4 h", "value": 40, "unit": "µg/mL"}, {"measurement": "solubility at 24 h", "setting": "[5]; simulated gastric fluid (SGF), pH 1.8, simulated gastric fluid, thermodynamic from solid, SGF (pH=1.8), 24 h, read-out: Solubility in SGF 24 h", "value": 560, "unit": "µg/mL"}, {"measurement": "Mechanical stability (crystalline form after grinding)", "setting": "[6]", "value": "better mechanical stabilities; also recorded: don't change after grinding; also recorded: without crystal transformation observed during grinding"}, {"measurement": "Hygroscopicity class", "setting": "[7]; 80% RH, Chinese Pharmacopoeia 2015 definition", "value": "almost non-hygroscopic; also recorded: almost no hygroscopic"}, {"measurement": "Form change after DVS", "setting": "[7]; XRPD before and after DVS cycle 0-95%-0 RH", "value": "no form change was observed"}]}, {"smiles": "O=C(Nc1nc2cccc(-c3ccc(CN4CCS(=O)(=O)CC4)cc3)n2n1)C1CC1", "note": "[Form D of free form]", "values": [{"measurement": "Solubility in water", "setting": "[2]", "value": "solubility in water is 55.26 μg/mL. The yield is low and is"}, {"measurement": "Stability", "setting": "[3]", "value": "Stability is poor. XRPD is tested after being placed at"}]}, {"smiles": "O=C(Nc1nc2cccc(-c3ccc(CN4CCS(=O)(=O)CC4)cc3)n2n1)C1CC1", "note": "[Form E of free form]", "values": [{"measurement": "Stability", "setting": "[3]", "value": "Stability is poor. XRPD is tested after being placed at"}]}, {"smiles": "O=C(Nc1nc2cccc(-c3ccc(CN4CCS(=O)(=O)CC4)cc3)n2n1)C1CC1", "note": "[Form F of free form]", "values": [{"measurement": "Solubility in water", "setting": "[2]", "value": "The solubility is low. The solubility in water is 50.98 μg/mL"}]}, {"smiles": "O=C(Nc1nc2cccc(-c3ccc(CN4CCS(=O)(=O)CC4)cc3)n2n1)C1CC1", "note": "[Form H of free form]", "values": [{"measurement": "Solubility in water", "setting": "[2]", "value": "solubility in water is 12.77 μg/mL."}]}, {"smiles": "O=C(Nc1nc2cccc(-c3ccc(CN4CCS(=O)(=O)CC4)cc3)n2n1)C1CC1", "note": "[Pattern 4, reference compound]", "values": [{"measurement": "Solubility in FaSSIF 1 h", "setting": "[5]; listed as Patent Pattern 4", "value": 20, "unit": "µg/mL"}, {"measurement": "Solubility in FaSSIF 4 h", "setting": "[5]; listed as Patent Pattern 4", "value": 20, "unit": "µg/mL"}, {"measurement": "Solubility in FaSSIF 24 h", "setting": "[5]; listed as Patent Pattern 4", "value": 20, "unit": "µg/mL"}, {"measurement": "Solubility in FeSSIF 1 h", "setting": "[5]; FeSSIF pH=5.0, 1 h, listed as Patent Pattern 4", "value": 30, "unit": "µg/mL"}, {"measurement": "Solubility in FeSSIF 4 h", "setting": "[5]; FeSSIF pH=5.0, 4 h, listed as Patent Pattern 4", "value": 30, "unit": "µg/mL"}, {"measurement": "Solubility in FeSSIF 24 h", "setting": "[5]; FeSSIF pH=5.0, 24 h, listed as Patent Pattern 4", "value": 30, "unit": "µg/mL"}, {"measurement": "Solubility in SGF 1 h", "setting": "[5]; SGF (pH=1.8), listed as Patent Pattern 4", "value": 1020, "unit": "µg/mL"}, {"measurement": "Solubility in SGF 4 h", "setting": "[5]; SGF (pH=1.8), 4 h, listed as Patent Pattern 4", "value": 1070, "unit": "µg/mL"}, {"measurement": "Solubility in SGF 24 h", "setting": "[5]; SGF (pH=1.8), 24 h, listed as Patent Pattern 4", "value": 460, "unit": "µg/mL"}, {"measurement": "Solubility in water 1 h", "setting": "[5]; pure water, listed as Patent Pattern 4", "value": 20, "unit": "µg/mL"}, {"measurement": "Solubility in water 4 h", "setting": "[5]; pure water, 4 h, listed as Patent Pattern 4", "value": 10, "unit": "µg/mL"}, {"measurement": "Solubility in water 24 h", "setting": "[5]; pure water, 24 h, listed as Patent Pattern 4", "value": 10, "unit": "µg/mL"}, {"measurement": "Mechanical stability (crystalline form after grinding)", "setting": "[6]", "value": "poor mechanical stability"}]}]}
